# Test results as given in ChEMBL document CHEMBL1138365, “Application of 3D-QSAR for identification of descriptors defining bioactivity of antimicrobial peptides” (2007).
# Starred links: 1 amine or outer side, 2 acyl side, 3 side chain; linkers in the order of their positions; H or OH if unused. Non-standard residues stand in square brackets, D forms with d. Residues, ends and D or L forms follow the SMILES beside them. ξ: configuration not given here. *: point of attachment. Pro(3ξ,4ξ-(CH2)4) = O=C(O)[C@H]1NCC2CCCCC21; Oic = O=C(O)[C@@H]1C[C@@H]2CCCC[C@@H]2N1; Ethylenediamine = C(CN[*:2])N[*:1]; Tic = O=C(O)[C@@H]1Cc2ccccc2CN1; NH(CH2)3NH2 = NCCCN*
# Tests used:
# Staphylococcus aureus = assay: Antibacterial activity against Staphylococcus aureus; type: functional
# [1] = system: Mycolicibacterium fortuitum; assay: Antibacterial activity against Mycobacterium ranae; type: functional
SMILES,MIC (Staphylococcus aureus) [µM],MIC [1] [µM]
CC(C)C[C@@H](NC(=O)CNC(=O)[C@H](CCCCN)NC(=O)CN)C(=O)N1Cc2ccccc2C[C@H]1C(=O)N1CC2CCCCC2[C@H]1C(=O)NCC(=O)N[C@@H](CCCNC(=N)N)C(=O)N1Cc2ccccc2C[C@H]1C(=O)N1CC2CCCCC2[C@H]1C(=O)NCC(=O)N[C@@H](Cc1ccccc1)C(=O)N1Cc2ccccc2C[C@H]1C(=O)N1CC2CCCCC2[C@H]1C(=O)NCC(=O)N[C@@H](CCCNC(=N)N)C(=O)N1Cc2ccccc2C[C@H]1C(=O)N1CC2CCCCC2[C@H]1C(=O)NCC(=O)N[C@@H](Cc1ccccc1)C(=O)N1Cc2ccccc2C[C@H]1C(=O)N1CC2CCCCC2[C@H]1C(=O)NCC(=O)N[C@@H](CCCNC(=N)N)C(=O)N1Cc2ccccc2C[C@H]1C(=O)N1CC2CCCCC2[C@H]1C(=O)NCC(=O)N[C@@H](CCCCN)C(=O)N[C@@H](CCCNC(=N)N)C(N)=O (some centres undefined),10,
CC(C)C[C@H](NC(=O)CNC(=O)[C@@H]1C2CCCCC2CN1C(=O)[C@@H]1Cc2ccccc2CN1C(=O)[C@H](CC(C)C)NC(=O)CNC(=O)[C@@H]1C2CCCCC2CN1C(=O)[C@@H]1Cc2ccccc2CN1C(=O)[C@H](CCCCN)NC(=O)CNC(=O)[C@@H]1C2CCCCC2CN1C(=O)[C@@H]1Cc2ccccc2CN1C(=O)[C@H](CC(C)C)NC(=O)CNC(=O)[C@@H]1C2CCCCC2CN1C(=O)[C@@H]1Cc2ccccc2CN1C(=O)[C@H](CCCCN)NC(=O)CNC(=O)[C@@H]1C2CCCCC2CN1C(=O)[C@@H]1Cc2ccccc2CN1C(=O)[C@H](CC(C)C)NC(=O)CNC(=O)[C@@H]1C2CCCCC2CN1C(=O)[C@@H]1Cc2ccccc2CN1C(=O)[C@@H](CC(C)C)NC(=O)CNC(=O)[C@H](CCCCN)NC(=O)CN)C(=O)N[C@@H](CCCNC(=N)N)C(N)=O (some centres undefined),100,
CC(C)C[C@H](NC(=O)CNC(=O)[C@@H]1C2CCCCC2CN1C(=O)[C@@H]1Cc2ccccc2CN1C(=O)[C@H](CCCCN)NC(=O)CNC(=O)[C@@H]1C2CCCCC2CN1C(=O)[C@@H]1Cc2ccccc2CN1C(=O)[C@H](CC(C)C)NC(=O)CNC(=O)[C@@H]1C2CCCCC2CN1C(=O)[C@@H]1Cc2ccccc2CN1C(=O)[C@H](CCCCN)NC(=O)CNC(=O)[C@@H]1C2CCCCC2CN1C(=O)[C@@H]1Cc2ccccc2CN1C(=O)[C@@H](CC(C)C)NC(=O)CNC(=O)[C@H](CCCCN)NC(=O)CN)C(=O)N1Cc2ccccc2C[C@H]1C(=O)N1CC2CCCCC2[C@H]1C(=O)NCC(=O)N[C@@H](CCCCN)C(=O)N1Cc2ccccc2C[C@H]1C(=O)N1CC2CCCCC2[C@H]1C(=O)NCC(=O)N[C@@H](CCCCN)C(=O)N[C@@H](CCCNC(=N)N)C(N)=O (some centres undefined),10,
CC(C)C[C@H](NC(=O)CNC(=O)[C@H](CCCCN)NC(=O)CN)C(=O)N1Cc2ccccc2C[C@H]1C(=O)N1CC2CCCCC2[C@H]1C(=O)N[C@H](Cc1ccccc1)C(=O)N[C@H](CCCCN)C(=O)N1Cc2ccccc2C[C@@H]1C(=O)N1CC2CCCCC2[C@H]1C(=O)N[C@H](CCCCN)C(=O)N[C@H](Cc1ccccc1)C(=O)N1Cc2ccccc2C[C@H]1C(=O)N1CC2CCCCC2[C@@H]1C(=O)N[C@H](Cc1ccccc1)C(=O)N[C@H](CCCCN)C(=O)N1Cc2ccccc2C[C@@H]1C(=O)N1CC2CCCCC2[C@H]1C(=O)N[C@@H](CCCCN)C(=O)N[C@@H](Cc1ccccc1)C(=O)N1Cc2ccccc2C[C@@H]1C(=O)N1CC2CCCCC2[C@H]1C(=O)N[C@H](Cc1ccccc1)C(=O)N[C@H](CCCCN)C(=O)N1Cc2ccccc2C[C@@H]1C(=O)N1CC2CCCCC2[C@@H]1C(=O)N[C@H](Cc1ccccc1)C(=O)N[C@@H](CCCCN)C(=O)N[C@@H](CCCNC(=N)N)C(N)=O (some centres undefined),30,
"CC(=O)N[C@@H](Cc1ccccc1)C(=O)N1Cc2ccccc2C[C@H]1C(=O)N1CC2CCCCC2[C@H]1C(=O)N[C@@H](CCCCN)C(=O)N1Cc2ccccc2C[C@H]1C(=O)N1CC2CCCCC2[C@H]1C(=O)N[C@@H](Cc1ccccc1)C(=O)N1Cc2ccccc2C[C@H]1C(=O)N1CC2CCCCC2[C@H]1C(=O)N[C@@H](CCCCN)C(=O)N1Cc2ccccc2C[C@H]1C(=O)N[C@@H](CCCCN)C(=O)N[C@@H](CCCCN)C(=O)N[C@@H](CCCCN)C(=O)N[C@@H](CCCCN)C(N)=O (some centres undefined) (Ac-F[Tic][Pro(3ξ,4ξ-(CH2)4)]K[Tic][Pro(3ξ,4ξ-(CH2)4)]F[Tic][Pro(3ξ,4ξ-(CH2)4)]K[Tic]KKKK-NH2)",3,30
"CC(=O)N[C@@H](Cc1ccccc1)C(=O)N1Cc2ccccc2C[C@H]1C(=O)N1CC2CCCCC2[C@H]1C(=O)N[C@@H](CCCCN)C(=O)N1Cc2ccccc2C[C@H]1C(=O)N1CC2CCCCC2[C@H]1C(=O)N[C@@H](Cc1ccccc1)C(=O)N1Cc2ccccc2C[C@H]1C(=O)N1CC2CCCCC2[C@H]1C(=O)N[C@@H](CCCCN)C(=O)N1Cc2ccccc2C[C@H]1C(=O)N[C@@H](CCCCN)C(=O)N[C@@H](CCCCN)C(=O)N[C@@H](CCCCN)C(=O)N[C@@H](CCCCN)C(=O)N[C@@H](CCCCN)C(=O)N[C@@H](CCCCN)C(N)=O (some centres undefined) (Ac-F[Tic][Pro(3ξ,4ξ-(CH2)4)]K[Tic][Pro(3ξ,4ξ-(CH2)4)]F[Tic][Pro(3ξ,4ξ-(CH2)4)]K[Tic]KKKKKK-NH2)",3,3
"CC(=O)NCC(=O)N[C@@H](Cc1ccccc1)C(=O)NCC(=O)N1CC2CCCCC2[C@H]1C(=O)NCC(=O)N[C@@H](CCCCN)C(=O)NCC(=O)N1CC2CCCCC2[C@H]1C(=O)NCC(=O)N[C@@H](Cc1ccccc1)C(=O)NCC(=O)N1CC2CCCCC2[C@H]1C(=O)NCC(=O)N[C@@H](CCCCN)C(=O)NCC(=O)N[C@@H](CCCCN)C(=O)N[C@@H](CCCCN)C(=O)N[C@@H](CCCCN)C(=O)N[C@@H](CCCCN)C(N)=O (some centres undefined) (Ac-GFG[Pro(3ξ,4ξ-(CH2)4)]GKG[Pro(3ξ,4ξ-(CH2)4)]GFG[Pro(3ξ,4ξ-(CH2)4)]GKGKKKK-NH2)",,100
"CC(=O)NCC(=O)N[C@@H](Cc1ccccc1)C(=O)N1CC2CCCCC2[C@H]1C(=O)NCC(=O)N[C@@H](CCCCN)C(=O)N1CC2CCCCC2[C@H]1C(=O)NCC(=O)N[C@@H](Cc1ccccc1)C(=O)N1CC2CCCCC2[C@H]1C(=O)NCC(=O)N[C@@H](CCCCN)C(=O)N[C@@H](CCCCN)C(=O)N[C@@H](CCCCN)C(=O)N[C@@H](CCCCN)C(=O)N[C@@H](CCCCN)C(N)=O (some centres undefined) (Ac-GF[Pro(3ξ,4ξ-(CH2)4)]GK[Pro(3ξ,4ξ-(CH2)4)]GF[Pro(3ξ,4ξ-(CH2)4)]GKKKKK-NH2)",,100
CC(=O)NCC(=O)N[C@@H](Cc1ccccc1)C(=O)N1Cc2ccccc2C[C@H]1C(=O)NCC(=O)NCC(=O)N[C@@H](CCCCN)C(=O)N1Cc2ccccc2C[C@H]1C(=O)NCC(=O)NCC(=O)N[C@@H](Cc1ccccc1)C(=O)N1Cc2ccccc2C[C@H]1C(=O)NCC(=O)NCC(=O)N[C@@H](CCCCN)C(=O)N1Cc2ccccc2C[C@H]1C(=O)N[C@@H](CCCCN)C(=O)N[C@@H](CCCCN)C(=O)N[C@@H](CCCCN)C(=O)N[C@@H](CCCCN)C(N)=O (Ac-GF[Tic]GGK[Tic]GGF[Tic]GGK[Tic]KKKK-NH2),,30
CC(=O)NCC(=O)N[C@@H](Cc1ccccc1)C(=O)N1Cc2ccccc2C[C@H]1C(=O)NCC(=O)N[C@@H](CCCCN)C(=O)N1Cc2ccccc2C[C@H]1C(=O)NCC(=O)N[C@@H](Cc1ccccc1)C(=O)N1Cc2ccccc2C[C@H]1C(=O)NCC(=O)N[C@@H](CCCCN)C(=O)N1Cc2ccccc2C[C@H]1C(=O)N[C@@H](CCCCN)C(=O)N[C@@H](CCCCN)C(=O)N[C@@H](CCCCN)C(=O)N[C@@H](CCCCN)C(N)=O (Ac-GF[Tic]GK[Tic]GF[Tic]GK[Tic]KKKK-NH2),,30
CC(=O)NCC(=O)N[C@@H](Cc1ccccc1)C(=O)N1Cc2ccccc2C[C@H]1C(=O)N1[C@H](C(=O)NCC(=O)N[C@@H](CCCCN)C(=O)N2Cc3ccccc3C[C@H]2C(=O)N2[C@H](C(=O)NCC(=O)N[C@@H](Cc3ccccc3)C(=O)N3Cc4ccccc4C[C@H]3C(=O)N3[C@H](C(=O)NCC(=O)N[C@@H](CCCCN)C(=O)N4Cc5ccccc5C[C@H]4C(=O)N[C@@H](CCCCN)C(=O)N[C@@H](CCCCN)C(=O)N[C@@H](CCCCN)C(=O)N[C@@H](CCCCN)C(=O)NCCN)C[C@@H]4CCCC[C@@H]43)C[C@@H]3CCCC[C@@H]32)C[C@@H]2CCCC[C@@H]21 (Ac-GF[Tic][Oic]GK[Tic][Oic]GF[Tic][Oic]GK[Tic]KKKK-Ethylenediamine),3,10
CC(=O)NCC(=O)N[C@@H](Cc1ccccc1)C(=O)N1Cc2ccccc2C[C@H]1C(=O)N1[C@H](C(=O)NCC(=O)N[C@@H](CCCCN)C(=O)N2Cc3ccccc3C[C@H]2C(=O)N2[C@H](C(=O)NCC(=O)N[C@@H](Cc3ccccc3)C(=O)N3Cc4ccccc4C[C@H]3C(=O)N3[C@H](C(=O)NCC(=O)N[C@@H](CCCCN)C(=O)N4Cc5ccccc5C[C@H]4C(=O)N[C@@H](CCCCN)C(=O)N[C@@H](CCCCN)C(=O)N[C@@H](CCCCN)C(=O)N[C@@H](CCCCN)C(=O)NCCCN)C[C@@H]4CCCC[C@@H]43)C[C@@H]3CCCC[C@@H]32)C[C@@H]2CCCC[C@@H]21 (Ac-GF[Tic][Oic]GK[Tic][Oic]GF[Tic][Oic]GK[Tic]KKKK-{NH(CH2)3NH2}),10,10
"CC(=O)NCC(=O)N[C@@H](Cc1ccccc1)C(=O)N1Cc2ccccc2C[C@H]1C(=O)N1CC2CCCCC2[C@H]1C(=O)NCC(=O)N[C@@H](CCCCN)C(=O)N1Cc2ccccc2C[C@H]1C(=O)N1CC2CCCCC2[C@H]1C(=O)NCC(=O)N[C@@H](Cc1ccccc1)C(=O)N1Cc2ccccc2C[C@H]1C(=O)N1CC2CCCCC2[C@H]1C(=O)NCC(=O)N[C@@H](CCCCN)C(=O)N1Cc2ccccc2C[C@H]1C(=O)N[C@@H](CCCCN)C(=O)N[C@@H](CCCCN)C(=O)N[C@@H](CCCCN)C(=O)N[C@@H](CCCCN)C(N)=O (some centres undefined) (Ac-GF[Tic][Pro(3ξ,4ξ-(CH2)4)]GK[Tic][Pro(3ξ,4ξ-(CH2)4)]GF[Tic][Pro(3ξ,4ξ-(CH2)4)]GK[Tic]KKKK-NH2)",3,10
"CC(C)C[C@H](NC(=O)CNC(=O)[C@H](CCCCN)NC(=O)CN)C(=O)N1Cc2ccccc2C[C@H]1C(=O)N1CC2CCCCC2[C@H]1C(=O)NCC(=O)N[C@@H](CCCCN)C(=O)N1Cc2ccccc2C[C@H]1C(=O)N1CC2CCCCC2[C@H]1C(=O)NCC(=O)N[C@@H](Cc1ccccc1)C(=O)N1Cc2ccccc2C[C@H]1C(=O)N1CC2CCCCC2[C@H]1C(=O)NCC(=O)N[C@@H](CCCCN)C(=O)N1Cc2ccccc2C[C@H]1C(=O)N1CC2CCCCC2[C@H]1C(=O)NCC(=O)N[C@@H](Cc1ccccc1)C(=O)N1Cc2ccccc2C[C@H]1C(=O)N1CC2CCCCC2[C@H]1C(=O)NCC(=O)N[C@@H](CCCCN)C(=O)N1Cc2ccccc2C[C@H]1C(=O)N1CC2CCCCC2[C@H]1C(=O)NCC(=O)N[C@@H](CCCCN)C(=O)N[C@@H](CCCNC(=N)N)C(N)=O (some centres undefined) (H-GKGL[Tic][Pro(3ξ,4ξ-(CH2)4)]GK[Tic][Pro(3ξ,4ξ-(CH2)4)]GF[Tic][Pro(3ξ,4ξ-(CH2)4)]GK[Tic][Pro(3ξ,4ξ-(CH2)4)]GF[Tic][Pro(3ξ,4ξ-(CH2)4)]GK[Tic][Pro(3ξ,4ξ-(CH2)4)]GKR-NH2)",10,
